Legend:
[1] = system: ducksalad (Heteranthera limosa); experiment: Test B flooded paddy test, visual rating 0-100; details: Flood, 250 g ai/ha, applied to paddy water, rated after 13 to 15 days
[2] = system: wheat (Triticum aestivum); experiment: Test A postemergence, visual injury rating 0-100; assay type: in vivo; details: 0 to 100 scale
[3] = system: barnyardgrass (Echinochloa crus-galli); experiment: Test A postemergence, visual injury rating 0-100; assay type: in vivo; details: 0 to 100 scale
kochia (Kochia scoparia) [4] = experiment: Test A postemergence, visual injury rating 0-100; assay type: in vivo; details: 0 to 100 scale
[5] = system: ryegrass, Italian (Italian ryegrass, Lolium multiflorum); experiment: Test A postemergence, visual injury rating 0-100; assay type: in vivo; details: 0 to 100 scale
[6] = system: pigweed (Amaranthus retroflexus); experiment: Test A postemergence, visual injury rating 0-100; assay type: in vivo; details: 0 to 100 scale
[7] = system: foxtail, giant (giant foxtail, Setaria faberii); experiment: Test A postemergence, visual injury rating 0-100; assay type: in vivo; details: 0 to 100 scale
[8] = system: galium (catchweed bedstraw, Galium aparine); experiment: Test A postemergence, visual injury rating 0-100; assay type: in vivo; details: 0 to 100 scale
corn (Zea mays) = experiment: Test A postemergence, visual injury rating 0-100; assay type: in vivo; details: 0 to 100 scale
[9] = system: ragweed (common ragweed, Ambrosia elatior); experiment: Test A postemergence, visual injury rating 0-100; assay type: in vivo; details: 0 to 100 scale
[10] = system: blackgrass (Alopecurus myosuroides); experiment: Test A postemergence, visual injury rating 0-100; assay type: in vivo; details: 0 to 100 scale
[11] = system: barnyardgrass (Echinochloa crus-galli); experiment: Test A preemergence, visual injury rating 0-100 (0 no effect, 100 complete control); assay type: in vivo
kochia (Kochia scoparia) [12] = experiment: Test A preemergence, visual injury rating 0-100; assay type: in vivo
[13] = system: ryegrass, Italian (Italian ryegrass, Lolium multiflorum); experiment: Test A preemergence, visual injury rating 0-100; assay type: in vivo
[14] = system: pigweed (Amaranthus retroflexus); experiment: Test A preemergence, visual injury rating 0-100; assay type: in vivo
[15] = system: foxtail, giant (giant foxtail, Setaria faberii); experiment: Test A preemergence, visual injury rating 0-100; assay type: in vivo
[16] = system: ragweed (common ragweed, Ambrosia elatior); experiment: Test A preemergence, visual injury rating 0-100; assay type: in vivo
rice (Oryza sativa) = experiment: Test B flooded paddy test, visual rating 0-100 (0 no effect, 100 complete control); details: Flood, 250 g ai/ha, applied to paddy water, rated after 13 to 15 days
[17] = system: barnyardgrass (Echinochloa crus-galli); experiment: Test B flooded paddy test, visual rating 0-100; details: Flood, 250 g ai/ha, applied to paddy water, rated after 13 to 15 days

| Compound | Ducksalad plant response rating (0 to 100 scale) [1] | Wheat plant response rating ([2]; 125 g ai/ha) | Wheat plant response rating ([2]; 500 g ai/ha) | Barnyardgrass plant response rating ([3]; 125 g ai/ha) | Barnyardgrass plant response rating ([3]; 500 g ai/ha) | Kochia plant response rating (kochia (Kochia scoparia) [4]; 125 g ai/ha) | Kochia plant response rating (kochia (Kochia scoparia) [4]; 500 g ai/ha) | Ryegrass, Italian plant response rating ([5]; 125 g ai/ha) | Ryegrass, Italian plant response rating ([5]; 500 g ai/ha) | Pigweed plant response rating ([6]; 125 g ai/ha) | Pigweed plant response rating ([6]; 500 g ai/ha) | Foxtail, Giant plant response rating ([7]; 125 g ai/ha) | Foxtail, Giant plant response rating ([7]; 500 g ai/ha) | Galium plant response rating ([8]; 125 g ai/ha) | Galium plant response rating ([8]; 500 g ai/ha) | Corn plant response rating (corn (Zea mays); 125 g ai/ha) | Corn plant response rating (corn (Zea mays); 500 g ai/ha) | Ragweed plant response rating ([9]; 125 g ai/ha) | Ragweed plant response rating ([9]; 500 g ai/ha) | Blackgrass plant response rating ([10]; 125 g ai/ha) | other results |
| --- | --- | --- | --- | --- | --- | --- | --- | --- | --- | --- | --- | --- | --- | --- | --- | --- | --- | --- | --- | --- | --- |
| CC1=[N+]([O-])C(C(=O)Nc2cccc(F)c2F)C(c2ccccc2)C1 (stereo not drawn) [Compound 97] | 100 | 10 | 30 | 70 | 90 | 0 | 50 | 0 | 50 | 0 | 0 | 60 | 90 | 30 | 50 | 0 | 0 | 0 | 20 | 30 | Blackgrass plant response rating ([10]; 500 g ai/ha): 70; Barnyardgrass plant response rating (0 to 100 scale) ([11]; 125 g ai/ha): 90; Barnyardgrass plant response rating (0 to 100 scale) ([11]; 500 g ai/ha): 100; Kochia plant response rating (0 to 100 scale) (kochia (Kochia scoparia) [12]; 125 g ai/ha): 50; Kochia plant response rating (0 to 100 scale) (kochia (Kochia scoparia) [12]; 500 g ai/ha): 60; Ryegrass, Italian plant response rating (0 to 100 scale) ([13]; 125 g ai/ha): 20; Ryegrass, Italian plant response rating (0 to 100 scale) ([13]; 500 g ai/ha): 90; Pigweed plant response rating (0 to 100 scale) ([14]; 125 g ai/ha): 0; Pigweed plant response rating (0 to 100 scale) ([14]; 500 g ai/ha): 60; Foxtail, Giant plant response rating (0 to 100 scale) ([15]; 125 g ai/ha): 90; Foxtail, Giant plant response rating (0 to 100 scale) ([15]; 500 g ai/ha): 90; Ragweed plant response rating (0 to 100 scale) ([16]; 125 g ai/ha): 40; Ragweed plant response rating (0 to 100 scale) ([16]; 500 g ai/ha): 90; Rice plant response rating (0 to 100 scale) (rice (Oryza sativa)): 0; Barnyardgrass plant response rating (0 to 100 scale) [17]: 70 |
| CC1=[N+]([O-])C(C(=O)Nc2cccc(F)c2F)C(c2cc(C(F)(F)F)ccc2C)C1 (stereo not drawn) [Compound 98] | 100 | 60 | 70 | 70 | 90 | 0 | 0 | 40 | 70 | 0 | 30 | 80 | 90 | 0 | 40 | 60 | 80 | 30 | 30 | 70 | Blackgrass plant response rating ([10]; 500 g ai/ha): 70; Barnyardgrass plant response rating (0 to 100 scale) ([11]; 125 g ai/ha): 90; Barnyardgrass plant response rating (0 to 100 scale) ([11]; 500 g ai/ha): 90; Kochia plant response rating (0 to 100 scale) (kochia (Kochia scoparia) [12]; 125 g ai/ha): 10; Kochia plant response rating (0 to 100 scale) (kochia (Kochia scoparia) [12]; 500 g ai/ha): 80; Ryegrass, Italian plant response rating (0 to 100 scale) ([13]; 125 g ai/ha): 90; Ryegrass, Italian plant response rating (0 to 100 scale) ([13]; 500 g ai/ha): 100; Pigweed plant response rating (0 to 100 scale) ([14]; 125 g ai/ha): 0; Pigweed plant response rating (0 to 100 scale) ([14]; 500 g ai/ha): 70; Foxtail, Giant plant response rating (0 to 100 scale) ([15]; 125 g ai/ha): 90; Foxtail, Giant plant response rating (0 to 100 scale) ([15]; 500 g ai/ha): 100; Ragweed plant response rating (0 to 100 scale) ([16]; 125 g ai/ha): 20; Ragweed plant response rating (0 to 100 scale) ([16]; 500 g ai/ha): 80; Rice plant response rating (0 to 100 scale) (rice (Oryza sativa)): 0; Barnyardgrass plant response rating (0 to 100 scale) [17]: 55 |
| CC1=[N+]([O-])C(C(=O)Nc2cccc(F)c2F)C(c2cccc(Cl)c2F)C1 (stereo not drawn) [Compound 99] | 85 | 0 | 50 | 90 | 90 | 0 | 50 | 30 | 70 | 0 | 40 | 60 | 90 | 30 | 50 | 0 | 40 | 0 | 30 | 50 | Blackgrass plant response rating ([10]; 500 g ai/ha): 70; Barnyardgrass plant response rating (0 to 100 scale) ([11]; 125 g ai/ha): 90; Barnyardgrass plant response rating (0 to 100 scale) ([11]; 500 g ai/ha): 90; Kochia plant response rating (0 to 100 scale) (kochia (Kochia scoparia) [12]; 125 g ai/ha): 10; Kochia plant response rating (0 to 100 scale) (kochia (Kochia scoparia) [12]; 500 g ai/ha): 70; Ryegrass, Italian plant response rating (0 to 100 scale) ([13]; 125 g ai/ha): 50; Ryegrass, Italian plant response rating (0 to 100 scale) ([13]; 500 g ai/ha): 70; Pigweed plant response rating (0 to 100 scale) ([14]; 125 g ai/ha): 0; Pigweed plant response rating (0 to 100 scale) ([14]; 500 g ai/ha): 60; Foxtail, Giant plant response rating (0 to 100 scale) ([15]; 125 g ai/ha): 90; Foxtail, Giant plant response rating (0 to 100 scale) ([15]; 500 g ai/ha): 90; Ragweed plant response rating (0 to 100 scale) ([16]; 125 g ai/ha): 10; Ragweed plant response rating (0 to 100 scale) ([16]; 500 g ai/ha): 80; Rice plant response rating (0 to 100 scale) (rice (Oryza sativa)): 0; Barnyardgrass plant response rating (0 to 100 scale) [17]: 60 |
